As a reminder, the IC50 is the concentration that gives 50% inhibition.

The target in the assay is T1, PRMT5 (protein arginine methyl transferase 5) (Homo sapiens, UniProt O14744).
T1 construct: human recombinant PRMT5/MEP50 complex; with MEP50
As to the kind of experiment: scintillation proximity radiometric methyltransferase assay (3H-SAM, histone H4 peptide); jump dilution. Type of assay: biochemical.

T1 sequence (O14744 2-637): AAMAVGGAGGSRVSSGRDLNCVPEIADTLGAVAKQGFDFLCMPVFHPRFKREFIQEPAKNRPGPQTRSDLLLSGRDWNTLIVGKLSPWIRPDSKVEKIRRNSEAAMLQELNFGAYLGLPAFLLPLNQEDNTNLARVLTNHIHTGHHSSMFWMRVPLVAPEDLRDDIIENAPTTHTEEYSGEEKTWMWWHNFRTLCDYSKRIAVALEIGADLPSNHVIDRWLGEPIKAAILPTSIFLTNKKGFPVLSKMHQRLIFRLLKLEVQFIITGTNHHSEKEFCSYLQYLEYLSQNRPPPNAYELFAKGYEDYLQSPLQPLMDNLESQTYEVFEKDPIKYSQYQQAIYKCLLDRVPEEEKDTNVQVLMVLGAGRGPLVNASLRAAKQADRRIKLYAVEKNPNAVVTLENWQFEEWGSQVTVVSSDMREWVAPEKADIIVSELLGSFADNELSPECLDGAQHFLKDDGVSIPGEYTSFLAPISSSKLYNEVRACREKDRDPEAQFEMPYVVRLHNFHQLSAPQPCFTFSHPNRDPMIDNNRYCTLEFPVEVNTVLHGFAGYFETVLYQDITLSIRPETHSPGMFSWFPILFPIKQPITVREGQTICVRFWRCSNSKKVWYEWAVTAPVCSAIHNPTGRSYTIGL
T1 sequence (Q9BQA1 whole entry partner): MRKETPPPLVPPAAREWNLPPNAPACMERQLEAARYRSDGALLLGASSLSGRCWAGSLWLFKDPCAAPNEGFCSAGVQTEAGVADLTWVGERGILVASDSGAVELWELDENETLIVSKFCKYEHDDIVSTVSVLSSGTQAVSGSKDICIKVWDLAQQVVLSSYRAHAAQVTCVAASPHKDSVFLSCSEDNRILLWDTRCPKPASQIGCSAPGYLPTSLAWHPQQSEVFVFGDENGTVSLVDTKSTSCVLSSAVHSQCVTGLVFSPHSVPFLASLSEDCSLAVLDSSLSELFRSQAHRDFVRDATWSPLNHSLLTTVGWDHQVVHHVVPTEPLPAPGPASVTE

For the substance PRT543, the 50% inhibitory concentration (IC50) stood at 10.8 nM.
